{
  "source": "PubChem BioAssay AID1259407",
  "about": "(Chemical Carcinogenesis Research Information System (CCRIS), 2018)",
  "tested_on": "CCRIS mutagenicity, Ames/micronucleus/aberration tests",
  "test": "CCRIS mutagenicity studies",
  "key": {"[1]": {"conditions": "Test System: AMES SALMONELLA TYPHIMURIUM, Strain/Indicator: TA98, Metabolic Activation: NONE, Method: STANDARD PLATE"}, "[2]": {"conditions": "Test System: AMES SALMONELLA TYPHIMURIUM, Strain/Indicator: TA100, Metabolic Activation: RAT, LIVER, S-9, AROCLOR 1254, Method: STANDARD PLATE"}},
  "note": "Calls of active or inactive are those of the source. How the calls were made is not given here.",
  "data": [
    {"smiles": "Cc1cc(C)c2c(ccc3ccccc32)c1", "values": [
      {"measurement": "mutagenic call", "setting": "[1]", "value": "inactive; negative"},
      {"measurement": "mutagenic call", "setting": "Test System: AMES SALMONELLA TYPHIMURIUM, Strain/Indicator: TA98, Metabolic Activation: RAT, LIVER, S-9, AROCLOR 1254, Method: STANDARD PLATE", "value": "inactive; negative"},
      {"measurement": "mutagenic call", "setting": "Test System: AMES SALMONELLA TYPHIMURIUM, Strain/Indicator: TA100, Metabolic Activation: NONE, Method: STANDARD PLATE", "value": "inactive; negative"},
      {"measurement": "mutagenic call", "setting": "[2]", "value": "active; positive"}
    ]},
    {"smiles": "[Zn]", "values": [
      {"measurement": "mutagenic call", "setting": "[1]", "value": "inactive; negative"},
      {"measurement": "mutagenic call", "setting": "Test System: AMES SALMONELLA TYPHIMURIUM, Strain/Indicator: TA98, Metabolic Activation: RAT, LIVER, S-9, PHENOBARBITAL, Method: STANDARD PLATE", "value": "inactive; negative"},
      {"measurement": "mutagenic call", "setting": "Test System: AMES SALMONELLA TYPHIMURIUM, Strain/Indicator: TA102, Metabolic Activation: NONE, Method: STANDARD PLATE", "value": "inactive; negative"},
      {"measurement": "mutagenic call", "setting": "Test System: AMES SALMONELLA TYPHIMURIUM, Strain/Indicator: TA102, Metabolic Activation: RAT, LIVER, S-9, PHENOBARBITAL, Method: STANDARD PLATE", "value": "inactive; negative"},
      {"measurement": "mutagenic call", "setting": "Test System: AMES SALMONELLA TYPHIMURIUM, Strain/Indicator: TA1535, Metabolic Activation: NONE, Method: STANDARD PLATE", "value": "inactive; negative"},
      {"measurement": "mutagenic call", "setting": "Test System: AMES SALMONELLA TYPHIMURIUM, Strain/Indicator: TA1535, Metabolic Activation: RAT, LIVER, S-9, PHENOBARBITAL, Method: STANDARD PLATE", "value": "inactive; negative"},
      {"measurement": "mutagenic call", "setting": "Test System: AMES SALMONELLA TYPHIMURIUM, Strain/Indicator: TA1537, Metabolic Activation: NONE, Method: STANDARD PLATE", "value": "inactive; negative"},
      {"measurement": "mutagenic call", "setting": "Test System: AMES SALMONELLA TYPHIMURIUM, Strain/Indicator: TA1537, Metabolic Activation: RAT, LIVER, S-9, PHENOBARBITAL, Method: STANDARD PLATE", "value": "inactive; negative"},
      {"measurement": "mutagenic call", "setting": "Test System: UDS HUMAN AMNION FL CELL LINE, Strain/Indicator: THY INCORP, Metabolic Activation: NONE, Method: LIQUID SCINTILLATION COUNTING", "value": "inactive; negative"}
    ]},
    {"smiles": "N#CC1CO1", "note": "(stereo not given)", "values": [
      {"measurement": "mutagenic call", "setting": "Test System: UDS HUMAN MAMMARY EPITHELIAL CELLS, Strain/Indicator: THY INCORP, Metabolic Activation: NONE, Method: AUTORADIOGRAPHY", "value": "active; positive"},
      {"measurement": "mutagenic call", "setting": "Test System: UDS PRIMARY RAT HEPATOCYTES, Strain/Indicator: THY INCORP, Metabolic Activation: NONE, Method: AUTORADIOGRAPHY", "value": "inactive; negative"}
    ]},
    {"smiles": "C[C@H](CN=[N+]=[N-])c1ccccc1", "values": [
      {"measurement": "mutagenic call", "setting": "Test System: AMES SALMONELLA TYPHIMURIUM, Strain/Indicator: TA100, Metabolic Activation: NONE, Method: PREINCUBATION", "value": "inactive; negative"},
      {"measurement": "mutagenic call", "setting": "Test System: AMES SALMONELLA TYPHIMURIUM, Strain/Indicator: TA100, Metabolic Activation: RAT, LIVER, S-9, PCB, Method: PREINCUBATION", "value": "active; positive"}
    ]},
    {"smiles": "C=C1C[C@@]23CC[C@H]4[C@@](C)(CCC[C@@]4(C)C(=O)O)[C@@H]2CC[C@]1(O[C@@H]1O[C@H](CO)[C@@H](O)[C@H](O)[C@H]1O[C@@H]1O[C@H](CO)[C@@H](O)[C@H](O)[C@H]1O)C3", "values": [
      {"measurement": "mutagenic call", "setting": "Test System: AMES SALMONELLA TYPHIMURIUM, Strain/Indicator: TM677, Metabolic Activation: RAT, LIVER, S-9, AROCLOR 1254, Method: PREINCUBATION", "value": "inactive; negative"}
    ]},
    {"smiles": "OC1C=Cc2c(ccc3ccccc23)C1O", "note": "(stereo not given)", "values": [
      {"measurement": "mutagenic call", "setting": "[2]", "value": "active; positive"}
    ]},
    {"smiles": "O[C@@H]1[C@@H]2O[C@@H]2c2c(ccc3ccc4ccccc4c23)[C@H]1O", "values": [
      {"measurement": "mutagenic call", "setting": "Test System: E. COLI, Strain/Indicator: CL101P, Metabolic Activation: NONE, Method: PREINCUBATION", "value": "active; positive"},
      {"measurement": "mutagenic call", "setting": "Test System: E. COLI, Strain/Indicator: CL102P, Metabolic Activation: NONE, Method: PREINCUBATION", "value": "active; positive"},
      {"measurement": "mutagenic call", "setting": "Test System: E. COLI, Strain/Indicator: CL103P, Metabolic Activation: NONE, Method: PREINCUBATION", "value": "active; positive"},
      {"measurement": "mutagenic call", "setting": "Test System: E. COLI, Strain/Indicator: CL104P, Metabolic Activation: NONE, Method: PREINCUBATION", "value": "active; positive"},
      {"measurement": "mutagenic call", "setting": "Test System: E. COLI, Strain/Indicator: CL105P, Metabolic Activation: NONE, Method: PREINCUBATION", "value": "active; positive"},
      {"measurement": "mutagenic call", "setting": "Test System: E. COLI, Strain/Indicator: CL106P, Metabolic Activation: NONE, Method: PREINCUBATION", "value": "active; positive"}
    ]}
  ]
}
